# Measurements: patent US20150297694A1, “CANCER DIAGNOSTIC AND THERAPEUTIC METHOD TARGETING MOLECULES EXPRESSED IN CANCER STEM CELLS” (NIIGATA UNIVERSITY, priority 2012, published 2015)
# Test system: PBMC of healthy volunteers (HLA-A*0201 or HLA-A*2601)
# Test: IFN-γ production (ELISA) by DDX3X-derived peptide stimulation of peptide-induced CTL from PBMC
# Format: cell-based, human
# Settings: peptide 20 μg/mL, 24 hours
# Experimental: PBMC (1.5×10^7 cells) were inoculated in a 24-well plate in 1.5×10^6 cells/well (Day 0). Then, three types of DDX3X-derived peptides (final concentration 20 μg/mL each), and IL-7 (final concentration 10 ng/mL) were added to each well, and the cells were cultured at 37° C. in 5% CO2.
# The cells were re-stimulated after 1 week (Day 7). For re-stimulation, the PBMC cryopreserved as antigen-presenting cells in Day 0 were thawed, and the three types of DDX3X-derived peptides (final concentration 20 μg/mL each) were added and conjugated at 37° C. for 2 hours after adjusting the cells to 3×10^6 cells/mL or less. This was followed by addition of a mitomycin C [Kyowa Hakko Kirin] solution to make the final concentration 50 μg/mL, and the cells were treated at 37° C. for 45 min. The cells were washed twice with AIM-V, and resuspended in medium to obtain an antigen-presenting cell suspension. After harvesting cells cultured for 1 week, the cells were inoculated in a 24-well plate in 1.2×10^6 cells/well, and the antigen-presenting cell suspension was inoculated with the same number of cells. Finally, IL-7 was added at 10 ng/ml, and the cells were cultured at 37° C. in 5% CO2. After 2 days (Day 9), half of the culture medium was gently removed from each well, and replaced with 40 U/mL of IL-2-containing medium for further culture. The half-volume replacement of the culture medium with 20 U/mL of IL-2-containing medium was repeated in the same fashion every other day (Day 11, Day 13). Re-stimulation was repeated in Day 14 and Day 21 using the same procedure. […]
# Twenty-four hours after peptide stimulation, the culture supernatant was gently collected from each well. IFN-γ concentration in each culture supernatant was detected by ELISA, by using an ELISA reagent set (BD OptEIA ELISA set (human IFN-7)(trade name)) according to the manufacturer's protocol after modification. […] Measurements were made with a visible wavelength absorbance microplate reader (VERSAmax(trade name); Molecular Device).
Sequence,"samples showing IFN-γ production (Day 28, samples with A*2601)","samples showing IFN-γ production (Day 21, samples with A*2601)","samples showing IFN-γ production (Day 28, samples with A*0201)"
FVETKKGADSLEDFLYHEGY (listed as Homo sapiens) [DDX3X-20 mer],one of the five,–,–
LEDFLYHEGY (listed as Homo sapiens) [DDX3X-10 mer],–,two of the five,one of the six
